Assay results as given in patent US8410140B2, “Anesthetic methods and compositions” (The Regents of the University of Michigan, priority 2009, dated 2013).

Legend:
[1] = test system: sciatic nerve block in rat; assay: PWL and inter-paw differential (IPD), perineural versus subcutaneous dexmedetomidine in sciatic nerve block (Example 3); format: in vivo
Description: The relative systemic versus peripheral perineural effects of dexmedetomidine were determined by observing the PWL for the blocked and unblocked (control) paw. The effect of sensory analgesia (as measured by the PWL) to the operative paw compared with the control paw was calculated and is reported as the inter-paw differential (IPD=100*[Operative PWL−Control PWL]/Control PWL).
Data are presented as mean±SEM.

[2] = test system: sciatic nerve block in rat; conditions: high-dose dexmedetomidine alone or combined with approved concentrations of bupivacaine; cited from earlier work
[3] = test system: sciatic nerve block in rat; assay: Paw withdrawal latency (PWL) to a heat stimulus after perineural sciatic nerve block, dexmedetomidine dose response (Example 2); format: in vivo; conditions: operative paw, ropivacaine 0.5%, heat cut-off 15 seconds, n = 10
Description: Commercially available 0.75% ropivacaine solution was mixed with preservative free normal saline or dexmedetomidine to make final solutions. The control group received 0.5% ropivacaine alone. In the experimental groups, ropivacaine was mixed with dexmedetomidine to make solutions based on the individual rat's weight 24 hours prior to experimental testing. […] The pH of ropivacaine (5.69±0.05) was used as the standard to which all solutions were maintained.
Fifty male Sprague Dawley rats (caesarean-derived Sprague-Dawley) weighing 250-350 g were purchased from Charles River Laboratories (Wilmington, Mass.). Rats without any signs of neurobehavioral impairment were maintained for one week in 12:12 light-dark cycles with lights on from 6 a.m. to 6 p.m. For the three days prior to surgery and neurobehavioral monitoring, rats were conditioned to the paw withdrawal chambers for one hour per day. Each rat was placed in the same position of the six-chamber container during the conditioning and neurobehavioral testing. On each of the three days prior to testing, both paws of the rat were exposed to the heat stimulus as a portion of the conditioning process. The day before surgery and testing, five PWL baseline measurements were obtained on both the operative and control paws. The mean value of the five measures was recorded as the rat's baseline value.
The IITC Life Sciences Inc. Plantar Analgesia Meter (Series 8 Model 336T, IITC Life Science Inc., Woodland Hills, Calif.) was used to test paw withdrawal latency (PWL) (Hargreaves et al. (1988) Pain 32:77-88; herein incorporated by reference in its entirety). The analgesia meter used a test unit containing a heat source that radiated a light beam. An angled mirror on the test unit was used to locate the correct target on the paw. The meter was set with an active intensity of 40%, an idle intensity of 10%, and a cut-off time for the heat source of 15 seconds. The time to paw withdrawal from the heat stimulus comprised the PWL measure (reaction time was measured to 0.01 s). An acrylic six-chamber container was used to separate the rats that were placed on the glass (Model 400) heated base. In order to decrease the level of variance in PWL measurements, the temperature of the base was set to 30 degrees Celsius five minutes prior to and throughout each round of PWL testing (Ding et al. (1997) Neurosci. Methods 76:183-191; herein incorporated by reference in its entirety).
An investigator blinded to the drug condition carried out the sciatic nerve injections. Each rat was randomly assigned to one of the five drug conditions. The laboratory assistants responsible for drug preparation were blinded to the surgery, neurobehavioral monitoring, and PWL measures. Rats were anesthetized and maintained with 2.5% isoflurane. […] Following the dissection, the sciatic nerve was clearly identified at a point proximal its bifurcation. All rats received unilateral injections of 0.2 ml of drug into the perineural space below the clear fascia covering the nerve and proximal to the bifurcation of the sciatic nerve. Injections were made using a tuberculin syringe and a 30-gauge needle. The time of the injection was recorded and deemed the zero time point. A non-absorbable muscle fascia suture was placed at the midpoint of the injection site as a marker for subsequent nerve removal.

[4] = drug(s) injected perineurally, saline subcutaneously, ropivacaine 0.5%, DEX 20.0 μg/kg, p<0.05

| SMILES | sensory blockade of the operative paw ([1]; DEX 20.0 μg/kg alone, perineural) | inter-paw differential (IPD), relative effect ([1]; DEX 20.0 μg/kg alone, perineural, significantly different at 30 and 60 minutes (p=0.006 and 0.002)) | time points with significant differences between the operative and control paws (PWL) ([1]; DEX 20.0 μg/kg injected subcutaneously, perineural 0.5% ropivacaine or saline) | time points with significant differences between the operative and control paws (PWL) [1, 4] [min] | neurotoxicity [2] | PWL scores of the operative paws, 30-90 min time points ([1]; dense blockade, cutoff threshold 15 s, ropivacaine 0.5%, DEX 20.0 μg/kg) [s] | Mean PWL values, 90 min ([3]; 90 min after 0.2 ml perineural sciatic injection) [s] | Mean PWL values, 120 min ([3]; 120 min after 0.2 ml perineural sciatic injection) [s] | Mean PWL values, 150 min ([3]; 150 min after 0.2 ml perineural sciatic injection) [s] | Mean PWL values, 180 min ([3]; 180 min after 0.2 ml perineural sciatic injection) [s] | Mean PWL values, 210 min ([3]; 210 min after 0.2 ml perineural sciatic injection) [s] |
| --- | --- | --- | --- | --- | --- | --- | --- | --- | --- | --- | --- |
| Cc1cccc([C@H](C)c2cnc[nH]2)c1C [dexmedetomidine, Dexmedetomidine] | brief, partial sensory blockade | greater than subcutaneous dexmedetomidine alone | affected both paws equally | 60 | no neurotoxicity |  |  |  |  |  |  |
| CCCN1CCCC[C@H]1C(=O)Nc1c(C)cccc1C [Ropivacaine, ropivacaine] |  |  |  | 30 to 90 |  | ~15 | 13.25 | 6.13 | 4.74 | 5.35 | 5.05 |
